Activity calls are given as the source filed them. The rule behind the calls is not given here.
Columns and labels:
[1] = tested on: SK-HEP1; experiment: Induction of cell cycle arrest in human SK-HEP1 cells assessed as G1 phase accumulation at 20 uM incubated for 24 hrs by propidium iodide staining based flow cytometry analysis (reference value: 48.61%); type: functional
[2] = tested on: Mus musculus; experiment: Downregulation of KIF14 expression in mouse liver at 40 mg/kg measured after 30 days by immunohistochemical staining analysis; type: functional, organism-based; settings: time 30.0 day
[3] = tested on: SK-HEP1; experiment: Antiproliferative activity against human SK-HEP1 cells overexpressing TRBP at 20 uM measured by crystal violet dye based colony formation assay; type: functional, cell-based
[4] = tested on: SK-HEP1; experiment: Antiproliferative activity against human SK-HEP1 cells assessed as increase in miR-26a-5p level at 20 uM by qRT-PCR analysis; type: functional, cell-based
[5] = tested on: SK-HEP1; experiment: Antiproliferative activity against human SK-HEP1 cells assessed as increase in miR-22-5p level at 20 uM by qRT-PCR analysis; type: functional, cell-based
[6] = tested on: SK-HEP1; experiment: Antiproliferative activity against human SK-HEP1 cells assessed as decrease in miR135a-5p level at 20 uM by qRT-PCR analysis; type: functional, cell-based
[7] = tested on: SK-HEP1; experiment: Antiproliferative activity against human SK-HEP1 cells assessed as decrease in miR-30a-5p level at 20 uM by qRT-PCR analysis; type: functional, cell-based
[8] = tested on: MHCC97; experiment: Antiproliferative activity against human MHCC97 cells incubated for 24 hrs by alamar blue assay; settings: MHCC97, 24 h
[9] = tested on: Huh-7; experiment: Antiproliferative activity against human Huh-7 cells incubated for 24 hrs by alamar blue assay; settings: Huh-7, 24 h
[10] = tested on: HeLa; experiment: Antiproliferative activity against human HeLa cells incubated for 24 hrs by alamar blue assay
[11] = tested on: MDA-MB-231; experiment: Antiproliferative activity against human MDA-MB-231 cells incubated for 24 hrs by alamar blue assay; settings: MDA-MB-231, 24 h
[12] = Antiproliferative activity against human QSG7701 cells incubated for 24 hrs by alamar blue assay; type: functional, cell-based; settings: QSG7701, 24 h
[13] = tested on: SK-HEP1; experiment: Inhibition of colony formation in human SK-HEP1 cells at 10 to 50 uM incubated for 14 days by crystal violet staining based assay; type: functional, cell-based; settings: dose 10-50 µM, time 14.0 day
[14] = tested on: HCT-116; experiment: Inhibition of colony formation in human HCT-116 cells at 30 uM incubated for 14 days by crystal violet staining based assay; type: functional, cell-based; settings: time 14.0 day
[15] = tested on: HepG2; experiment: Inhibition of colony formation in human HepG2 cells at 30 uM incubated for 14 days by crystal violet staining based assay; type: functional, cell-based; settings: time 14.0 day
[16] = tested on: HeLa; experiment: Inhibition of colony formation in human HeLa cells at 30 uM incubated for 14 days by crystal violet staining based assay; type: functional, cell-based; settings: time 14.0 day
[17] = tested on: SK-HEP1; experiment: Induction of cell cycle arrest in human SK-HEP1 cells assessed as G2 phase accumulation at 20 uM incubated for 24 hrs by propidium iodide staining based flow cytometry analysis (reference value: 24.12%); type: functional
[18] = tested on: SK-HEP1; experiment: Induction of cell cycle arrest in human SK-HEP1 cells assessed as S phase accumulation at 20 uM incubated for 24 hrs by propidium iodide staining based flow cytometry analysis (reference value: 26.72%); type: functional
[19] = tested on: SK-HEP1; experiment: Inhibition of cell invasion in human SK-HEP1 cells at 30 uM incubated for 12 hrs by crystal violet staining based transwell assay; type: functional
[20] = tested on: SK-HEP1; experiment: Inhibition of epithelial-mesenchymal transition in human SK-HEP1 cells assessed as change in E-cadherin expression at 10 to 50 uM incubated for 24 hrs by Western blot analysis; type: functional, cell-based; settings: dose 10-50 µM
[21] = tested on: SK-HEP1; experiment: Inhibition of epithelial-mesenchymal transition in human SK-HEP1 cells assessed as change in vimentin expression at 10 to 50 uM incubated for 24 hrs by Western blot analysis; type: functional, cell-based; settings: dose 10-50 µM
[22] = tested on: MHCC97; experiment: Antimetastatic activity against human MHCC97 cells xenografted in SCID mouse assessed as decrease in liver metastasis at 20 mg/kg, ip administered once every 3 days and measured after 10 days; type: functional, organism-based; settings: time 10.0 day
[23] = tested on: SK-HEP1; experiment: Effect on human SK-HEP1 cells assessed as increase in miR-497-5p level by qRT-PCR analysis; type: functional, cell-based
[24] = tested on: SK-HEP1; experiment: Effect on human SK-HEP1 cells assessed as increase in miR-146a-5p level by qRT-PCR analysis; type: functional, cell-based
[25] = tested on: SK-HEP1; experiment: Effect on human SK-HEP1 cells assessed as decrease in miR-224-5p level at 10 to 50 uM by qRT-PCR analysis; type: functional, cell-based; settings: dose 10-50 µM
[26] = tested on: SK-HEP1; experiment: Inhibition of MEK phosphorylation in human SK-HEP1 cells at 30 uM by Western blot analysis; type: cell-based
[27] = target: Transcription factor p65 (Homo sapiens) (UniProt Q04206); experiment: Inhibition of p65 phosphorylation in human SK-HEP1 cells at 30 uM by Western blot analysis; type: cell-based
[28] = target: Mitogen-activated protein kinase; ERK1/ERK2 (Homo sapiens) (UniProt P27361+P28482); experiment: Inhibition of ERK1/2 phosphorylation in human SK-HEP1 cells at 30 uM by Western blot analysis; type: cell-based
[29] = target: Signal transducer and activator of transcription 3 (Homo sapiens) (UniProt P40763); experiment: Inhibition of STAT3 phosphorylation in human SK-HEP1 cells at 30 uM by Western blot analysis; type: cell-based
[30] = tested on: Mus musculus; experiment: Downregulation of CDC20 expression in mouse liver at 40 mg/kg measured after 30 days by immunohistochemical staining analysis; type: functional, organism-based; settings: time 30.0 day
[31] = tested on: SK-HEP1; experiment: Inhibition of cell migration in human SK-HEP1 cells overexpressing TRBP at 20 uM measured after 12 hrs using crystal violet staining inverted microscope based transwell assay; type: functional
[32] = tested on: SK-HEP1; experiment: Inhibition of cell migration in human SK-HEP1 cells knockdown TRBP at 20 uM measured after 12 hrs using crystal violet staining inverted microscope based transwell assay; type: functional
[33] = tested on: SK-HEP1; experiment: Antiproliferative activity against human SK-HEP1 cells assessed as increase in miR-214-5p level at 20 uM by qRT-PCR analysis; type: functional, cell-based
[34] = tested on: SK-HEP1; experiment: Antiproliferative activity against human SK-HEP1 cells assessed as increase in miR-224-5p level at 20 uM by qRT-PCR analysis; type: functional, cell-based
[35] = tested on: SK-HEP1; experiment: Antiproliferative activity against human SK-HEP1 cells assessed as increase in miR-222-5p level at 20 uM by qRT-PCR analysis; type: functional, cell-based
[36] = tested on: SK-HEP1; experiment: Antiproliferative activity against human SK-HEP1 cells assessed as increase in miR-10a-5p level at 20 uM by qRT-PCR analysis; type: functional, cell-based
[37] = tested on: MHCC97; experiment: Antiproliferative activity against human MHCC97 cells at 25 uM incubated for 24 hrs by alamar blue assay; type: functional, cell-based
[38] = tested on: HepG2; experiment: Antiproliferative activity against human HepG2 cells at 25 uM incubated for 24 hrs by alamar blue assay; type: functional, cell-based
[39] = tested on: MDA-MB-231; experiment: Antiproliferative activity against human MDA-MB-231 cells at 25 uM incubated for 24 hrs by alamar blue assay; type: functional, cell-based
[40] = tested on: MHCC97; experiment: Antitumor activity against human MHCC97 cells xenografted in SCID mouse assessed as decrease in tumor size at 20 mg/kg, ip administered once every 3 days and measured after 10 days; type: functional, organism-based; settings: time 10.0 day
[41] = tested on: MHCC97; experiment: Antitumor activity against human MHCC97 cells xenografted in SCID mouse assessed as decrease in tumor size at 40 mg/kg, ip administered once every 3 days and measured after 10 days; type: functional, organism-based; settings: time 10.0 day

Transcription factor p65 (Homo sapiens), sequence (Q04206 whole entry): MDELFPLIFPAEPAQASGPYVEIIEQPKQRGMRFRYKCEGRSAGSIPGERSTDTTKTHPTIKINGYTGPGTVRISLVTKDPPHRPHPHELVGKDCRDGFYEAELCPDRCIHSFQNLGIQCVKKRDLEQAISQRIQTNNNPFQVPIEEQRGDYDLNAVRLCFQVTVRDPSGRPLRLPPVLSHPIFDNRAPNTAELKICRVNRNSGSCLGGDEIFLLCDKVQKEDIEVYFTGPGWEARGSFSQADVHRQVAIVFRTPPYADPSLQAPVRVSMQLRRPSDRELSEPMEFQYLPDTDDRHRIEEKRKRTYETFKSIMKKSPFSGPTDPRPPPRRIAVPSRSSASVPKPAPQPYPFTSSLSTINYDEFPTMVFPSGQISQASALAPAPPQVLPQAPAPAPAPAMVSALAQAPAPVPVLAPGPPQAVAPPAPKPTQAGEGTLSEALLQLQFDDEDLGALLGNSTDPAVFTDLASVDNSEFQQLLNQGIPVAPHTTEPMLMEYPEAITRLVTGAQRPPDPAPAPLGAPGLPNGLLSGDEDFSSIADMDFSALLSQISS
Signal transducer and activator of transcription 3 (Homo sapiens), sequence (P40763 whole entry): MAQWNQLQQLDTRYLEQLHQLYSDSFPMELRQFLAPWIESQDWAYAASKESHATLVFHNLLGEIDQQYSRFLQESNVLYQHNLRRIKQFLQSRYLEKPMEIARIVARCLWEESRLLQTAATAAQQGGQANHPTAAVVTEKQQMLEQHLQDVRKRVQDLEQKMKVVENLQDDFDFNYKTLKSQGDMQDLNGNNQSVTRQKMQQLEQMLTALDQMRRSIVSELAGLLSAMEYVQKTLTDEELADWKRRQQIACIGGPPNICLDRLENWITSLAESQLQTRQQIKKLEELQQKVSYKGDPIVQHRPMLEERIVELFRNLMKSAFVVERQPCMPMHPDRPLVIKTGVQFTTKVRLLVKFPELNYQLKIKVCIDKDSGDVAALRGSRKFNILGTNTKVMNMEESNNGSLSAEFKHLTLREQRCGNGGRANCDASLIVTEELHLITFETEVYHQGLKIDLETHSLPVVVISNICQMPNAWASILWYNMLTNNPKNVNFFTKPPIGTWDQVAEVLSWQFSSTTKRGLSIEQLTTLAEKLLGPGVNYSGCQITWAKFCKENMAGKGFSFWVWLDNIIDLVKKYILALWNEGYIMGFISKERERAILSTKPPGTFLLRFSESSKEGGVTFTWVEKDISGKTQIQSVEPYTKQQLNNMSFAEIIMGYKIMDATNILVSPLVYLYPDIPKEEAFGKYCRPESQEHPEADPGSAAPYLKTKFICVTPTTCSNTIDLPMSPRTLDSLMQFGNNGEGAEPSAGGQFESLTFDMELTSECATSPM
Mitogen-activated protein kinase; ERK1/ERK2 (Homo sapiens), sequence (P27361 whole entry, looked up): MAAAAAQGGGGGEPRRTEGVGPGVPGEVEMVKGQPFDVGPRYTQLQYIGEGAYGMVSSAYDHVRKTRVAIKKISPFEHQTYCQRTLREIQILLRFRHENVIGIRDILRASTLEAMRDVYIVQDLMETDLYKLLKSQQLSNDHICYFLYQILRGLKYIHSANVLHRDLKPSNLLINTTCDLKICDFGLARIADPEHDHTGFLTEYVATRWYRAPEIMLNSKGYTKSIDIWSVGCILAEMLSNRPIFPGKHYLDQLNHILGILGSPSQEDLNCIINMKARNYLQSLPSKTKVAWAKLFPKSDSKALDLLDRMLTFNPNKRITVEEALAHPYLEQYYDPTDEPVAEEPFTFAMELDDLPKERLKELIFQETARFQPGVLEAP
Mitogen-activated protein kinase; ERK1/ERK2 (Homo sapiens), sequence (P28482 whole entry, looked up): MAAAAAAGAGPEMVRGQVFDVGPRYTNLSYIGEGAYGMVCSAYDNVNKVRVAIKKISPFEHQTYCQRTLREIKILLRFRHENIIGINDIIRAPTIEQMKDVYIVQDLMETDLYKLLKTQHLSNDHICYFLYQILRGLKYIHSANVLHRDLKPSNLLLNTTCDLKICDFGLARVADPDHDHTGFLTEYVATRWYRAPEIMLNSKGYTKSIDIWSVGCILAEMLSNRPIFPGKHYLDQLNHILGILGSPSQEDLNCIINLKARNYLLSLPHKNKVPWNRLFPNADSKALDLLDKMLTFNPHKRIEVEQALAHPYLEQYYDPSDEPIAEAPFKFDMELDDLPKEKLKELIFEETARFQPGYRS

COc1cc2c(c(O)c1OC)-c1c(cc3c(c1OC)OCO3)C[C@H](C)[C@H](C)C2
Activity [1]: 57.4% | Activity [2]: Active | Activity [3]: Active | Activity [4]: Active | Activity [5]: inactive | Activity [6]: inactive | Activity [7]: inactive | IC50 [8]: 24.8 µM | IC50 [9]: 32.2 µM | IC50 [10]: 32.8 µM | IC50 [11]: 56.6 µM | IC50 [12]: 53 µM | inhibition [13]: Active | inhibition [14]: Active | inhibition [15]: Active | inhibition [16]: Active | Activity [17]: 19.68% | Activity [18]: 22.3% | inhibition [19]: Active | inhibition [20]: inactive | inhibition [21]: inactive | Activity [22]: inactive | Activity [23]: Dose-Dependent Effect | Activity [24]: Dose-Dependent Effect | Activity [25]: Active | inhibition [26]: Active | inhibition [27]: Active | inhibition [28]: Active | inhibition [29]: inactive | Activity [30]: Active | inhibition [31]: Active | inhibition [32]: inactive | Activity [33]: Active | Activity [34]: inactive | Activity [35]: inactive | Activity [36]: inactive | Activity [37]: Active | Activity [38]: Active | Activity [39]: inactive | Activity [40]: Active | Activity [41]: Active
